Assay results reported in patent publication US12344603B2 (Genentech, Inc., priority 2020, dated 2025).
Structures can show the parent of a compound that is named as a salt.

Molecular target: IRE1α (Homo sapiens (Human), UniProt O75460, D688N)
Assay: IRE1α TR-FRET competition binding assay (IRE1α HTRF)
Settings: TR-FRET competition binding to kinase domain of IRE1α
Outline: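 Competition of compounds against an Alexa fluor 647 ATP-site probe (2 nM final) for the His-tagged kinase domain (0.25 nM final), detected via 2 nM Eu anti-His antibody by TR-FRET, 665 and 615 nm emission. Protein–antibody premix 1 h, 4° C; reaction 1 h, room temperature, pH 7.5 HEPES buffer.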

IRE1α, sequence (O75460 547-977 D688N): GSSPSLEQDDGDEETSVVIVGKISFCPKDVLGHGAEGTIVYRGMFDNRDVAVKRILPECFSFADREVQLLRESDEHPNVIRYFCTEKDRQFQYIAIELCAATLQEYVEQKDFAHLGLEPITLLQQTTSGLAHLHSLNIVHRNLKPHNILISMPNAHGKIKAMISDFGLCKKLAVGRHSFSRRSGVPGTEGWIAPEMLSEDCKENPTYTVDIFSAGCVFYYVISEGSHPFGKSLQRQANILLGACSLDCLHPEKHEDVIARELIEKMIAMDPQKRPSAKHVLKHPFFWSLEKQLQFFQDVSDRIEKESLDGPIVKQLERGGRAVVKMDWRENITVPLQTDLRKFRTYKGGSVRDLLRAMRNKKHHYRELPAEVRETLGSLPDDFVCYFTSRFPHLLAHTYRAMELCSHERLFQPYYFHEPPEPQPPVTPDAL

Row | SMILES | IC50 [nM]
1 | CC(C)n1c(=O)c(-c2ccc(NS(=O)(=O)CCC(F)(F)F)c(F)c2)cc2cnc(N[C@H]3CCC[C@H](N(C)C)C3)nc21 [Compound 104, hydrochloride] | 72
2 | CCn1c(=O)c(-c2cc(F)c(NS(=O)(=O)Cc3c(F)cccc3F)c(F)c2F)cc2cnc(N[C@@H]3CNC[C@@H](F)C3)nc21 [Compound 51, 1-(2,6-difluorophenyl)-N-(4-(8-ethyl-2-(((3S,5S)-5-fluoropiperidin-3-yl)amino)-7-oxo-7,8-dihydropyrido[2,3-d]pyrimidin-6-yl)-2,3,6-trifluorophenyl)methanesulfonamide] | 0.7
3 | CC(C)n1c(=O)c(-c2cc(NS(=O)(=O)CCC(F)(F)F)nn2C)cc2cnc(N[C@@H]3CNC[C@@H](F)C3)nc21 [Compound 85] | 16
4 | CC(C)n1c(=O)c(-c2ccc(NS(=O)(=O)Cc3ccccc3F)c(F)c2)cc2cnc(N[C@@H]3CNC[C@@H](F)C3)nc21 [Compound 90, N-(2-Fluoro-4-(2-(((3S,5S)-5-fluoropiperidin-3-yl)amino)-8-isopropyl-7-oxo-7,8-dihydropyrido[2,3-d]pyrimidin-6-yl)phenyl)-1-(2-fluorophenyl)methanesulfonamide] | 0.21
5 | CC(C)n1c(=O)c(-c2ccc(NS(=O)(=O)CC3CC(F)(F)C3)c(F)c2)nc2cnc(N[C@@H]3CC[C@@H](N(C)C)[C@H](F)C3)nc21 (stereo in doubt) [Compound 193B, 1-(3,3-Difluorocyclobutyl)-N-(4-(2-((4-(dimethylamino)-3-fluorocyclohexyl)amino)-8-isopropyl-7-oxo-7,8-dihydropteridin-6-yl)-2-fluorophenyl)methanesulfonamide] | 0.17
6 | CC(C)n1c(=O)c(-c2ccc(NS(=O)(=O)CCC(F)(F)F)c(F)c2)cc2cnc(N[C@H]3CC[C@H](N(C)C)CC3)nc21 [Compound 91, N-(4-(2-(((1r,4r)-4-(Dimethylamino)cyclohexyl)amino)-8-isopropyl-7-oxo-7,8-dihydropyrido[2,3-d]pyrimidin-6-yl)-2-fluorophenyl)-3,3,3-trifluoropropane-1-sulfonamide] | 0.13
7 | CC(C)n1c(=O)c(-c2ccc(NS(=O)(=O)CCC(F)(F)F)nc2)cc2cnc(N[C@H]3CC[C@H](N(C)C)CC3)nc21 [Example 215, N-(5-(2-(((1r,4r)-4-(dimethylamino)cyclo-hexyl)amino)-8-isopropyl-7-oxo-7,8-dihydropyrido[2,3-d]-pyrimidin-6-yl)pyridin-2-yl)-3,3,3-trifluoro-propane-1-sulfonamide] | 0.3
8 | CC(C)n1c(=O)c(-c2cc(F)c(NS(=O)(=O)Cc3ccc(C(F)F)cc3)c(F)c2)nc2cnc(N[C@H]3CC[C@H](N(C)C)CC3)nc21 [Example 244, 1-[4-(Difluoromethyl)phenyl]-N-[4-[2-[[4-(dimethylamino)cyclohexyl]amino]-8-isopropyl-7-oxo-pteridin-6-yl]-2,6-difluoro-phenyl]methanesulfonamide] | 0.2
9 | CCn1c(=O)c(-c2cc(NS(=O)(=O)Cc3ccccc3)nn2C)cc2cnc(N[C@@H]3CNC[C@@H](F)C3)nc21 [Compound 69, N-(5-(8-ethyl-2-(((3S,5S)-5-fluoropiperidin-3-yl)amino)-7-oxo-7,8-dihydropyrido[2,3-d]pyrimidin-6-yl)-1-methyl-1H-pyrazol-3-yl)-1-phenylmethanesulfonamide] | 98
10 | CC(C)n1c(=O)c(-c2cc(F)c(NS(=O)(=O)CCC(F)(F)F)c(F)c2F)cc2cnc(NC3CCC(N(C)C)C(F)C3)nc21 (stereo not shown) [Compound 60, N-(4-(2-((4-(dimethylamino)-3-fluorocyclohexyl)amino)-8-isopropyl-7-oxo-7,8-dihydropyrido[2,3-d]pyrimidin-6-yl)-2,3,6-trifluorophenyl)-3,3,3-trifluoropropane-1-sulfonamide] | 0.2
11 | CC(C)n1c(=O)c(-c2ccc(NS(=O)(=O)c3ccccc3OC(F)(F)F)nc2)cc2cnc(N[C@H]3CC[C@H](N(C)C)CC3)nc21 [Compound 150, N-(5-(2-(((1r,4r)-4-(Dimethylamino)cyclohexyl)amino)-8-isopropyl-7-oxo-7,8-dihydropyrido[2,3-d]pyrimidin-6-yl)pyridin-2-yl)-2-(trifluoromethoxy)benzenesulfonamide] | 0.26
12 | CC(C)n1c(=O)c(-c2c(F)cc(NS(=O)(=O)CCC(F)(F)F)c(F)c2F)nc2cnc(N[C@H]3CC[C@H](N(C)C)CC3)nc21 [Compound 172, N-(4-(2-(((1r,4r)-4-(Dimethylamino)cyclohexyl)amino)-8-isopropyl-7-oxo-7,8-dihydropteridin-6-yl)-2,3,5-trifluorophenyl)-3,3,3-trifluoropropane-1-sulfonamide hydrochloride] | 0.35
13 | CCn1c(=O)c(-c2cc(F)c(NS(=O)(=O)Cc3ccc(C#N)cc3)c(F)c2F)cc2cnc(N[C@@H]3CNC[C@@H](F)C3)nc21 [Compound 47, 1-(4-cyanophenyl)-N-(4-(8-ethyl-2-(((3S,5S)-5-fluoropiperidin-3-yl)amino)-7-oxo-7,8-dihydropyrido[2,3-d]pyrimidin-6-yl)-2,3,6-trifluorophenyl)methanesulfonamide] | 0.37
14 | CC(C)n1c(=O)c(-c2ccc(NS(=O)(=O)c3ccccc3Cl)c(F)c2)nc2cnc(N[C@@H]3CNC[C@@H](F)C3)nc21 [Compound 75, 2-Chloro-N-[2-fluoro-4-[2-[[(3S,5S)-5-fluoro-3-piperidyl]amino]-8-isopropyl-7-oxo-pteridin-6-yl]phenyl]benzenesulfonamide] | 0.3
15 | CC(C)n1c(=O)c(-c2ccc(NS(=O)(=O)Cc3ccccc3)c(F)c2)nc2cnc(N[C@@H]3CNC[C@@H](F)C3)nc21 [Compound 44, N-(2-Fluoro-4-(2-(((3S,5S)-5-fluoropiperidin-3-yl)amino)-8-isopropyl-7-oxo-7,8-dihydropteridin-6-yl)phenyl)-1-phenylmethanesulfonamide] | 0.28
16 | COCCN1CC2(CCC(Nc3ncc4cc(-c5ccc(NS(=O)(=O)CCC(F)(F)F)c(F)c5)c(=O)n(C(C)C)c4n3)CC2)C1 [Example 234, 3,3,3-Trifluoro-N-(2-fluoro-4-(8-isopropyl-2-((2-(2-methoxyethyl)-2-azaspiro[3.5]nonan-7-yl)amino)-7-oxo-7,8-dihydropyrido[2,3-d]pyrimidin-6-yl)phenyl)propane-1-sulfonamide] | 0.2
17 | CC(C)n1c(=O)c(-c2ccc(NS(=O)(=O)CC3CCC4C(C3)C4(F)F)c(F)c2)nc2cnc(N[C@H]3CC[C@H](N(C)C)CC3)nc21 (mixture of isomers) [Example 273, 1-(7,7-Difluoronorcaran-3-yl)-N-[4-[2-[[(1RS)-4-(dimethylamino)cyclohexyl]amino]-8-isopropyl-7-oxo-pteridin-6-yl]-2-fluoro-phenyl]methanesulfonamide] | 0.2
18 | COCCN(C)[C@H]1CC[C@H](Nc2ncc3cc(-c4ccc(NS(=O)(=O)Cc5ccc(F)cc5)c(F)c4)c(=O)n(C(C)C)c3n2)CC1 [Compound 123, N-(2-Fluoro-4-(8-isopropyl-2-(((1r,4r)-4-((2-methoxyethyl)(methyl)amino)cyclohexyl)amino)-7-oxo-7,8-dihydropyrido[2,3-d]pyrimidin-6-yl)phenyl)-1-(4-fluorophenyl)methanesulfonamide] | 0.05
19 | CC(C)n1c(=O)c(-c2cc(F)c(NS(=O)(=O)CC3CCC3(F)F)c(F)c2)nc2cnc(N[C@H]3CC[C@H](N(C)C)CC3)nc21 (mixture of isomers) [Example 250, 1-(2,2-Difluorocyclobutyl)-N-[4-[2-[[4-(dimethylamino)cyclohexyl]amino]-8-isopropyl-7-oxo-pteridin-6-yl]-2,6-difluoro-phenyl]methanesulfonamide] | 0.2
20 | Cc1nc(NS(=O)(=O)CCC(F)(F)F)ccc1-c1nc2cnc(N[C@H]3CC[C@H](N(C)C)CC3)nc2n(C(C)C)c1=O [Example 251, N-[5-[2-[[4-(Dimethylamino)cyclohexyl]amino]-8-isopropyl-7-oxo-pteridin-6-yl]-6-methyl-2-pyridyl]-3,3,3-trifluoro-propane-1-sulfonamide] | 7
21 | CC(C)n1c(=O)c(-c2cc(F)c(NS(=O)(=O)Cc3ccccc3)c(F)c2F)cc2cnc(N[C@H]3CC[C@H](N(C)C)CC3)nc21 [Compound 24, N-(4-(2-(((1r,4r)-4-(Dimethylamino)cyclohexyl)amino)-8-isopropyl-7-oxo-7,8-dihydropyrido[2,3-d]pyrimidin-6-yl)-2,3,6-trifluorophenyl)-1-phenylmethanesulfonamide] | 2.7
22 | CC(C)n1c(=O)c(-c2ccc(NS(=O)(=O)C3CC4CCC3C4)c(F)c2)nc2cnc(N[C@H]3CC[C@H](N(C)C)CC3)nc21 (stereo partly shown) [Example 281, N-(4-(2-(((1r, 4r)-4-(dimethylamino)cyclohexyl)amino)-8-isopropyl-7-oxo-7,8-dihydropteridin-6-yl)-2-fluorophenyl)bicyclo[2.2.1]heptane-2-sulfonamide] | 0.5
23 | CC(C)n1c(=O)c(-c2ccc(NS(=O)(=O)c3ccccc3)nc2)cc2cnc(N[C@H]3CC[C@H](N(C)C)CC3)nc21 [Compound 106, N-(5-(2-(((1r,4r)-4-(Dimethylamino)cyclohexyl)amino)-8-isopropyl-7-oxo-7,8-dihydropyrido[2,3-d]pyrimidin-6-yl)pyridin-2-yl)benzenesulfonamide] | 0.15
24 | Cn1c(=O)c(-c2cc(F)c(NS(=O)(=O)CCC(F)(F)F)c3ccccc23)cc2cnc(N[C@H]3CCCNC3)nc21 [Compound 7, (S)-3,3,3-Trifluoro-N-(2-fluoro-4-(8-methyl-7-oxo-2-(piperidin-3-ylamino)-7,8-dihydropyrido[2,3-d]pyrimidin-6-yl)naphthalen-1-yl)propane-1-sulfonamide] | 5.9
25 | CC(C)n1c(=O)c(-c2ccc(NS(=O)(=O)C3C4CCCCC43)c(F)c2)nc2cnc(N[C@H]3CC[C@H](N(C)C)CC3)nc21 (stereo partly shown) [Example 275, N-[4-[2-[[4-(Dimethylamino)cyclohexyl]amino]-8-isopropyl-7-oxo-pteridin-6-yl]-2-fluoro-phenyl]norcarane-7-sulfonamide] | 0.4
